From ChEMBL document CHEMBL5241112, “Insights into the recent progress in the medicinal chemistry of pyranopyrimidine analogs” (RSC Med Chem, 2022)
In brackets after ≈: the same amount, converted by molar mass.

How the values were obtained:
[1] = test system: Bacillus pumilus; test: Antibacterial activity against Bacillus pumilus assessed as inhibition of bacterial growth by microdilution method; format: functional
[2] = test system: Enterococcus faecalis; test: Antibacterial activity against […] assessed as inhibition of bacterial growth by microdilution method; format: functional
[3] = test system: Escherichia coli; test: Antibacterial activity against Escherichia coli assessed as inhibition of bacterial growth by microdilution method; format: functional
[4] = test system: Enterobacter cloacae; test: Antibacterial activity against Enterobacter cloacae assessed as inhibition of bacterial growth by microdilution method; format: functional
[5] = test system: Aspergillus niger; test: Antifungal activity against Aspergillus niger assessed as inhibition of fungal growth by microdilution method; format: functional
[6] = test system: Candida albicans; test: Antifungal activity against Candida albicans assessed as inhibition of fungal growth by microdilution method; format: functional
[7] = test system: Bacillus pumilus; test: Antibacterial activity against Bacillus pumilus assessed as inhibition of bacterial growth at MIC by microdilution method; format: functional
[8] = test system: Enterococcus faecalis; test: Antibacterial activity against […] assessed as inhibition of bacterial growth at MIC by microdilution method; format: functional
[9] = test system: Enterobacter cloacae; test: Antibacterial activity against Enterobacter cloacae assessed as inhibition of bacterial growth at MIC by microdilution method; format: functional
[10] = test system: Aspergillus niger; test: Antifungal activity against Aspergillus niger assessed as inhibition of fungal growth at MIC by microdilution method; format: functional
[11] = test system: Candida albicans; test: Antifungal activity against Candida albicans assessed as inhibition of fungal growth at MIC by microdilution method; format: functional
[12] = test system: Bacillus pumilus; test: Antibacterial activity against Bacillus pumilus assessed as minimum bactericidal concentration by microdilution method; format: functional
[13] = test system: Enterococcus faecalis; test: Antibacterial activity against […] assessed as minimum bactericidal concentration by microdilution method; format: functional
[14] = test system: Enterobacter cloacae; test: Antibacterial activity against Enterobacter cloacae assessed as minimum bactericidal concentration by microdilution method; format: functional
[15] = test system: Aspergillus niger; test: […] activity against Aspergillus niger assessed as […] by microdilution method; format: functional
[16] = test system: Candida albicans; test: […] activity against Candida albicans assessed as […] by microdilution method; format: functional
[17] = test system: Caco-2; test: Anticancer activity against human Caco-2 cells assessed as reduction in cell viability by MTT assay; format: functional, cell-based
[18] = Cytotoxicity against African green monkey Vero cells assessed as reduction in cell viability by MTT assay; format: toxicity, cell-based; conditions: African green monkey (Chlorocebus sabaeus)
[19] = molecular target: Poly [ADP-ribose] polymerase 1 (Homo sapiens, UniProt P09874); test: Inhibition of PARP1 (unknown origin) incubated for 1 hrs by colorimetric analysis
Sequence of Poly [ADP-ribose] polymerase 1 (P09874 whole entry): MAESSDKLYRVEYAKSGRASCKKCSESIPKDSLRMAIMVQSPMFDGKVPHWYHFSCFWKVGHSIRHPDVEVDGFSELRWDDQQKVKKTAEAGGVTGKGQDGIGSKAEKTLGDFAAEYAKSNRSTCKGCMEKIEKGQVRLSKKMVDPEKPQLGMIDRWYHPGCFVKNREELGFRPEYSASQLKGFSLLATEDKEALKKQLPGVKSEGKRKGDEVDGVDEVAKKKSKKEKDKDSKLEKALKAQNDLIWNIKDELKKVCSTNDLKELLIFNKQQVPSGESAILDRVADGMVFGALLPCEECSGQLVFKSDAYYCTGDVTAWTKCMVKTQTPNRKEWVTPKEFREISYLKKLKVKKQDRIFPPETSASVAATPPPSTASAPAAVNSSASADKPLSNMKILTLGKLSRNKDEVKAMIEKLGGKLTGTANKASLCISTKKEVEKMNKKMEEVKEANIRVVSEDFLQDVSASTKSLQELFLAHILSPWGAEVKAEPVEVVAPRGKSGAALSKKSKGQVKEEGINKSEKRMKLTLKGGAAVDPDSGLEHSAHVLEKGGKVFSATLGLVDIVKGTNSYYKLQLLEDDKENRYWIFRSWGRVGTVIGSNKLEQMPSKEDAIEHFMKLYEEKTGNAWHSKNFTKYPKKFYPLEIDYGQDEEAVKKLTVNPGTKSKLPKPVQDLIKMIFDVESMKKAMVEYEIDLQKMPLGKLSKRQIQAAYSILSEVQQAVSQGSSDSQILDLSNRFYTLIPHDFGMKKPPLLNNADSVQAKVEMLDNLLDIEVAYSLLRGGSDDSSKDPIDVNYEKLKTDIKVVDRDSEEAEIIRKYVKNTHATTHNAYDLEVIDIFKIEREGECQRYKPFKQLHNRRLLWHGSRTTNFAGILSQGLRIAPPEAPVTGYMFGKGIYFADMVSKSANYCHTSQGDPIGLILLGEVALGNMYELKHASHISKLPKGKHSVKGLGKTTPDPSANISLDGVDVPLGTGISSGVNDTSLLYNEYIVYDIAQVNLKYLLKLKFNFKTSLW

[20] = test system: MCF7; test: cells; format: functional, cell-based; conditions: Homo sapiens, MCF7, 96 h
[21] = test system: HCT-116; test: Anticancer activity against human HCT-116 cells assessed as reduction in cell viability incubated for 96 hrs by MTT assay; format: functional, cell-based; conditions: HCT-116, 96 h
[22] = test system: A549; test: Anticancer activity against human A549 cells assessed as reduction in cell viability incubated for 24 hrs by MTT assay; format: functional, cell-based; conditions: A549, 24 h
[23] = test system: HepG2; test: Anticancer activity against human HepG2 cells assessed as reduction in cell viability incubated for 24 hrs by MTT assay; format: functional, cell-based; conditions: HepG2, 24 h
[24] = test system: Micrococcus luteus; test: Antibacterial activity against Micrococcus luteus MTCC 2470 assessed as bacterial growth inhibition incubated for 24 hrs by broth microdilution method; format: functional
[25] = test system: Micrococcus luteus; test: Antibacterial activity against Micrococcus luteus MTCC 2470 assessed as minimum bactericidal concentration incubated for 24 hrs by broth microdilution method; format: functional
[26] = test system: Micrococcus luteus; test: Antibiofilm activity against Micrococcus luteus MTCC 2470 assessed as inhibition of biofilm incubated for 24 hrs by crystal violet staining based spectrophotometry; format: functional, organism-based; conditions: MTCC 2470, 24 h
[27] = test system: Staphylococcus aureus; test: Antibacterial activity against Staphylococcus aureus MTCC 96 assessed as bacterial growth inhibition incubated for 24 hrs by broth microdilution method; format: functional
[28] = test system: Staphylococcus aureus; test: Antibacterial activity against Staphylococcus aureus MTCC 96 assessed as minimum bactericidal concentration incubated for 24 hrs by broth microdilution method; format: functional
[29] = test system: Staphylococcus aureus; test: Antibiofilm activity against Staphylococcus aureus MTCC 96 assessed as inhibition of biofilm incubated for 24 hrs by crystal violet staining based spectrophotometry; format: functional, organism-based; conditions: MTCC 96, 24 h
[30] = test system: Staphylococcus aureus; test: Antibacterial activity against Staphylococcus aureus MLS-16 MTCC 2940 assessed as bacterial growth inhibition incubated for 24 hrs by broth microdilution method; format: functional
[31] = test system: Staphylococcus aureus; test: Antibacterial activity against Staphylococcus aureus MLS-16 MTCC 2940 assessed as minimum bactericidal concentration incubated for 24 hrs by broth microdilution method; format: functional
[32] = test system: Staphylococcus aureus; test: Antibiofilm activity against Staphylococcus aureus MLS-16 MTCC 2940 assessed as inhibition of biofilm incubated for 24 hrs by crystal violet staining based spectrophotometry; format: functional, organism-based; conditions: MLS-16 MTCC 2940, 24 h
[33] = test system: Bacillus subtilis; test: Antibacterial activity against Bacillus subtilis MTCC 121 assessed as bacterial growth inhibition incubated for 24 hrs by broth microdilution method; format: functional
[34] = test system: Bacillus subtilis; test: Antibacterial activity against Bacillus subtilis MTCC 121 assessed as minimum bactericidal concentration incubated for 24 hrs by broth microdilution method; format: functional
[35] = test system: Bacillus subtilis; test: Antibiofilm activity against Bacillus subtilis MTCC 121 assessed as inhibition of biofilm incubated for 24 hrs by crystal violet staining based spectrophotometry; format: functional, organism-based; conditions: MTCC 121, 24 h
[36] = test system: Escherichia coli; test: Antibacterial activity against Escherichia coli MTCC 739 assessed as bacterial growth inhibition incubated for 24 hrs by broth microdilution method; format: functional
[37] = test system: Escherichia coli; test: Antibacterial activity against Escherichia coli MTCC 739 assessed as minimum bactericidal concentration incubated for 24 hrs by broth microdilution method; format: functional
[38] = test system: Escherichia coli; test: Antibiofilm activity against Escherichia coli MTCC 739 assessed as inhibition of biofilm incubated for 24 hrs by crystal violet staining based spectrophotometry; format: functional, organism-based; conditions: MTCC 739, 24 h
[39] = test system: Raoultella planticola; test: Antibacterial activity against Raoultella planticola MTCC 530 assessed as bacterial growth inhibition incubated for 24 hrs by broth microdilution method; format: functional; conditions: Klebsiella planticola
[40] = test system: Raoultella planticola; test: Antibacterial activity against Raoultella planticola MTCC 530 assessed as minimum bactericidal concentration incubated for 24 hrs by broth microdilution method; format: functional; conditions: Klebsiella planticola
[41] = test system: Raoultella planticola; test: Antibiofilm activity against Raoultella planticola MTCC 530 assessed as inhibition of biofilm incubated for 24 hrs by crystal violet staining based spectrophotometry; format: functional, organism-based; conditions: Klebsiella planticola, MTCC 530, 24 h
[42] = test system: Candida albicans; test: Antifungal activity against Candida albicans MTCC 183 assessed as inhibition of fungal growth incubated for 24 hrs by agar well diffusion method; format: functional
[43] = test system: Candida albicans; test: Antifungal activity against Candida albicans MTCC 227 assessed as inhibition of fungal growth incubated for 24 hrs by agar well diffusion method; format: functional
[44] = test system: Candida albicans; test: Antifungal activity against Candida albicans MTCC 854 assessed as inhibition of fungal growth incubated for 24 hrs by agar well diffusion method; format: functional
[45] = test system: Candida albicans; test: Antifungal activity against Candida albicans MTCC 1637 assessed as inhibition of fungal growth incubated for 24 hrs by agar well diffusion method; format: functional
[46] = test system: Candida parapsilosis; test: Antifungal activity against Candida parapsilosis MTCC 1744 assessed as inhibition of fungal growth incubated for 24 hrs by agar well diffusion method; format: functional; conditions: Lodderomyces parapsilosis
[47] = test system: Nakaseomyces glabratus; test: Antifungal activity against Candida glabrata MTCC 3019 assessed as inhibition of fungal growth incubated for 24 hrs by agar well diffusion method; format: functional
[48] = test system: Pichia kudriavzevii; test: Antifungal activity against Candida krusei MTCC 3020 assessed as inhibition of fungal growth incubated for 24 hrs by agar well diffusion method; format: functional
[49] = test system: Pichia sporocuriosa; test: Antifungal activity against Pichia sporocuriosa MTCC 4755 assessed as inhibition of fungal growth incubated for 24 hrs by agar well diffusion method; format: functional
[50] = molecular target: NAD-dependent protein deacetylase sirtuin-1 (Homo sapiens, UniProt Q96EB6); test: Inhibition of recombinant human SIRT1 expressed in Escherichia coli using Fluor de Lys-SIRT1/2 substrate in presence of NAD+ by fluorescence microplate reader analysis
Sequence of NAD-dependent protein deacetylase sirtuin-1 (Q96EB6 whole entry): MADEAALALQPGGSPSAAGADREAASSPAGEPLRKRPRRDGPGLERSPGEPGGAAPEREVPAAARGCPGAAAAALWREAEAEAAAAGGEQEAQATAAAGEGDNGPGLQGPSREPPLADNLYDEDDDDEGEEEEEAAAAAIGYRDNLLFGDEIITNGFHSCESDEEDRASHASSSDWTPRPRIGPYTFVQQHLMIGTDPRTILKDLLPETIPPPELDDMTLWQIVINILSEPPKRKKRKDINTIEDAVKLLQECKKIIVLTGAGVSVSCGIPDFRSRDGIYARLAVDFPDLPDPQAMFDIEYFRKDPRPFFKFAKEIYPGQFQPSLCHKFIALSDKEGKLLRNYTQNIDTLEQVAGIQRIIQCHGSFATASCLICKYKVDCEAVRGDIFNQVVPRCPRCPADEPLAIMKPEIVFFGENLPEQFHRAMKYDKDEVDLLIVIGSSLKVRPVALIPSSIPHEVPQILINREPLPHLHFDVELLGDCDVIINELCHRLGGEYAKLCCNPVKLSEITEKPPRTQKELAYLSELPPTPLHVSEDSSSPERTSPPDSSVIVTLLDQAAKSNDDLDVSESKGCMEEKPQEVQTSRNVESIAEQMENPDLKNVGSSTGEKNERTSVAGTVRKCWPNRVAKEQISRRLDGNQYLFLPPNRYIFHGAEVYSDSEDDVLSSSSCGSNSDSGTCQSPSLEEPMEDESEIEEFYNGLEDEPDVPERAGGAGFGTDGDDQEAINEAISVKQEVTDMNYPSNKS

## COc1ccc(N2C(=O)C3C(c4ccccc4)C(C#N)=C(N)OC3N(c3ccc(OC)cc3)C2=S)cc1 (stereo not given)
[1]
  MIC: 15.6 µg/mL (≈ 30.4 µM)
[2]
  MIC: 7.81 µg/mL (≈ 15.2 µM)
[3]
  MIC: 3.91 µg/mL (≈ 7.63 µM)
[4]
  MIC: 31.2 µg/mL (≈ 60.9 µM)
[5]
  MIC: 62.5 µg/mL
[6]
  MIC: 31.2 µg/mL
[7]
  inhibition (INH): 51.3%
[8]
  inhibition (INH): 78.6%
[9]
  inhibition (INH): 50.5%
[10]
  inhibition (INH): 88.3%
[11]
  inhibition (INH): 85.5%
[12]
  MBC: 62.5 µg/mL (≈ 122 µM)
[13]
  MBC: 31.3 µg/mL (≈ 61.1 µM)
[14]
  MBC: 15.6 µg/mL (≈ 30.4 µM)
[15]
  MBC: 125 µg/mL (≈ 244 µM)
[16]
  MBC: 125 µg/mL (≈ 244 µM)
[17]
  IC50: 65.9 µg/mL (≈ 129 µM)
[18]
  IC50: 138 µg/mL (≈ 269 µM)

## Nc1cc(-c2ccc([N+](=O)[O-])cc2)nc2c1C(c1cccs1)c1c([nH]c(=O)[nH]c1=O)O2 (stereo not given)
[19]
  IC50: 0.0158 µM
[20]
  IC50: 0.66 µM
[21]
  IC50: 2.76 µM

## CCCCCCCCn1cc(Cn2c(C)nc3c(c2=O)C(c2ccccc2)C(C(=O)OCC)=C(C)O3)nn1 (stereo not given)
[22]
  IC50: 3.62 µM
[23]
  IC50: 69.9 µM

## COc1ccc(Nc2ncnc3c2C(c2ccc(OC)cc2)c2c(cc(C)oc2=O)O3)cc1 (stereo not given)
[24]
  MIC: 15.6 µg/mL (≈ 35.2 µM)
[25]
  MBC: 7.8 µg/mL (≈ 17.6 µM)
[26]
  IC50: 2.5 µM
[27]
  MIC: 15.6 µg/mL (≈ 35.2 µM)
[28]
  MBC: 7.8 µg/mL (≈ 17.6 µM)
[29]
  IC50: 2.5 µM
[30]
  MIC: 15.6 µg/mL (≈ 35.2 µM)
[31]
  MBC: 7.8 µg/mL (≈ 17.6 µM)
[32]
  IC50: 2.5 µM
[33]
  MIC: 7.8 µg/mL (≈ 17.6 µM)
[34]
  MBC: 7.8 µg/mL (≈ 17.6 µM)
[35]
  IC50: 2.5 µM
[36]
  MIC: 7.8 µg/mL (≈ 17.6 µM)
[37]
  MBC: 7.8 µg/mL (≈ 17.6 µM)
[38]
  IC50: 2.5 µM
[39]
  MIC: 7.8 µg/mL (≈ 17.6 µM)
[40]
  MBC: 7.8 µg/mL (≈ 17.6 µM)
[41]
  IC50: 2.5 µM
[42]
  MIC: 7.8 µg/mL (≈ 17.6 µM)
[43]
  MIC: 7.8 µg/mL (≈ 17.6 µM)
[44]
  MIC: 7.8 µg/mL (≈ 17.6 µM)
[45]
  MIC: 7.8 µg/mL (≈ 17.6 µM)
[46]
  MIC: 7.8 µg/mL (≈ 17.6 µM)
[47]
  MIC: 7.8 µg/mL (≈ 17.6 µM)
[48]
  MIC: 7.8 µg/mL (≈ 17.6 µM)
[49]
  MIC: 7.8 µg/mL (≈ 17.6 µM)

## O=C1N=C2Oc3ccccc3CC2C(=O)N1c1ccccc1 (stereo not given)
[50]
  IC50: 4.2 µM
